According to US20240360177A1, “PEPTIDES WITH ANTIMICROBIAL ACTIVITIES” (priority 2021, published 2024):
Converted amounts (≈) assume the structure as drawn. Read-outs that look alike come from different tables or passages of the source. Non-standard residues stand in square brackets, D forms with d. Residues, ends and D or L forms follow the SMILES beside them. 4Pal = N[C@@H](Cc1ccncc1)C(=O)O; hLeu = CC(C)CC[C@H](N)C(=O)O

Experiments:
[1] = tested on: Candida spp.; conditions: N = 15 strains
[2] = tested on: C. parapsilosis
[3] = tested on: C. tropicalis
[4] = tested on: C. dubliniensis
[5] = tested on: C. krusei
[6] = tested on: C. glabrata
[7] = tested on: C. auris
[8] = tested on: C. albicans

| MIC C. parapsilosis ([2]; 24 h) [µg/mL] | MIC C. tropicalis ([3]; 24 h) [µg/mL] | MIC C. dubliniensis ([4]; 24 h) [µg/mL] | MIC C. krusei ([5]; 24 h) [µg/mL] | MIC C. glabrata ([6]; 24 h) [µg/mL] | MIC C. auris ([7]; 24 h) [µg/mL] | MIC C. albicans ([8]; 24 h) [µg/mL] | Molecule | Activity at 24 h MIC50 against Candida spp. ([1]; 24 h (Table 13)) [µg/mL] | Activity at 24 h MIC90 against Candida spp. ([1]; 24 h (Table 13)) [µg/mL] | Activity at 48 h MIC50 against Candida spp. ([1]; 48 h (Table 13)) [µg/mL] | Activity at 48 h MIC90 against Candida spp. ([1]; 48 h (Table 13)) [µg/mL] | MIC C. parapsilosis [2] [µg/mL] | MIC C. tropicalis [3] [µg/mL] | MIC C. dubliniensis [4] [µg/mL] | MIC C. krusei [5] [µg/mL] | MIC C. glabrata [6] [µg/mL] | MIC C. auris [7] [µg/mL] | MIC C. albicans [8] [µg/mL] |
| --- | --- | --- | --- | --- | --- | --- | --- | --- | --- | --- | --- | --- | --- | --- | --- | --- | --- | --- |
|  |  |  |  |  |  |  | N=C(N)NCCC[C@@H](N)C(=O)N[C@@H](CCCNC(=N)N)C(=O)N[C@H](CCCNC(=N)N)C(=O)N[C@H](CCCNC(=N)N)C(=O)N[C@@H](CCCNC(=N)N)C(=O)N[C@H](CCCNC(=N)N)C(=O)N[C@H](CCCNC(=N)N)C(=O)N[C@@H](CCCNC(=N)N)C(=O)N[C@H](CCCNC(=N)N)C(=O)N[C@@H](CCCNC(=N)N)C(=O)N[C@H](CCCNC(=N)N)C(=O)N[C@@H](CCCNC(=N)N)C(=O)N[C@H](CCCNC(=N)N)C(=O)N[C@@H](CCCNC(=N)N)C(N)=O [14 Polyarginine, rRrrRrrRrRrRrR-NH2, reference compound] | 0.5 | 8 | 0.5 | >32 |  |  |  |  |  |  |  |
| 0.25 (≈ 0.124 µM) | 0.5 (≈ 0.247 µM) | 0.25 (≈ 0.124 µM) | 1 (≈ 0.494 µM) | 0.5 (≈ 0.247 µM) | 16 (≈ 7.91 µM) | 0.5 (≈ 0.247 µM) | N=C(N)NCCC[C@@H](N)C(=O)N[C@@H](CCCNC(=N)N)C(=O)N[C@@H](Cc1ccncc1)C(=O)N[C@H](CCCNC(=N)N)C(=O)N[C@@H](CCCNC(=N)N)C(=O)N[C@@H](Cc1ccncc1)C(=O)N[C@H](CCCNC(=N)N)C(=O)N[C@@H](CCCNC(=N)N)C(=O)N[C@H](CCCNC(=N)N)C(=O)N[C@@H](Cc1ccncc1)C(=O)N[C@H](CCCNC(=N)N)C(=O)N[C@@H](CCCNC(=N)N)C(=O)N[C@H](CCCNC(=N)N)C(N)=O [SEQ ID NO: 78, rR-(4-PyrAla)-rR-(4-PyrAla)-rRr-(4-PyrAla)-rRr-NH2] (H-[dR]R[4Pal][dR]R[4Pal][dR]R[dR][4Pal][dR]R[dR]-NH2) |  |  |  |  |  |  |  |  |  |  |  |
| 0.25 (≈ 0.101 µM) | 0.5 (≈ 0.203 µM) | 0.5 (≈ 0.203 µM) | 1 (≈ 0.406 µM) | 0.5 (≈ 0.203 µM) | 1 (≈ 0.406 µM) | 0.5 (≈ 0.203 µM) | CC(C)CC[C@H](N)C(=O)N[C@@H](CCCNC(=N)N)C(=O)N[C@H](CCCNC(=N)N)C(=O)N1CCC[C@H]1C(=O)N[C@H](CCCNC(=N)N)C(=O)N[C@@H](CCCNC(=N)N)C(=O)N[C@H](CCCNC(=N)N)C(=O)N1CCC[C@H]1C(=O)N[C@H](CCCNC(=N)N)C(=O)N[C@@H](CCCNC(=N)N)C(=O)N[C@H](CCCNC(=N)N)C(=O)N[C@@H](CCCNC(=N)N)C(=O)N1CCC[C@H]1C(=O)N[C@H](CCCNC(=N)N)C(=O)N[C@@H](CCCNC(=N)N)C(=O)N[C@H](CCCNC(=N)N)C(=O)N[C@@H](CCCNC(=N)N)C(N)=O [SEQ ID NO: 94, (hLeu)Rr-P-rRr-P-rRrR-P-rRrR-NH2] (H-[hLeu]R[dR]P[dR]R[dR]P[dR]R[dR]RP[dR]R[dR]R-NH2) |  |  |  |  |  |  |  |  |  |  |  |
|  |  |  |  |  |  |  | rRr-(Igl)-rRr-(Igl)-rRrR-(Igl)-rRrR-NH2 [SEQ ID NO: 75] |  |  |  |  | 0.5 | 0.5 | 0.5 | 0.5 | 0.5 | 0.5 | 0.5 |

| Molecule | MIC C. parapsilosis ([2]; 24 h) [µg/mL] | MIC C. tropicalis ([3]; 24 h) [µg/mL] | MIC C. dubliniensis ([4]; 24 h) [µg/mL] | MIC C. krusei ([5]; 24 h) [µg/mL] | MIC C. glabrata ([6]; 24 h) [µg/mL] | MIC C. auris ([7]; 24 h) [µg/mL] | MIC C. albicans ([8]; 24 h) [µg/mL] | Activity at 24 h MIC50 against Candida spp. ([1]; 24 h (Table 13)) [µg/mL] | Activity at 24 h MIC90 against Candida spp. ([1]; 24 h (Table 13)) [µg/mL] | Activity at 48 h MIC50 against Candida spp. ([1]; 48 h (Table 13)) [µg/mL] | Activity at 48 h MIC90 against Candida spp. ([1]; 48 h (Table 13)) [µg/mL] | MIC C. parapsilosis [2] [µg/mL] | MIC C. tropicalis [3] [µg/mL] | MIC C. dubliniensis [4] [µg/mL] | MIC C. krusei [5] [µg/mL] | MIC C. glabrata [6] [µg/mL] | MIC C. auris [7] [µg/mL] | MIC C. albicans [8] [µg/mL] |
| --- | --- | --- | --- | --- | --- | --- | --- | --- | --- | --- | --- | --- | --- | --- | --- | --- | --- | --- |
| rRr-(Apg)-rRr-(Apg)-rRrR-(Apg)-rRrR-NH2 [SEQ ID NO: 38] | 0.25 | 0.5 | 0.5 | 0.25 | 1 | 2 | 0.5 |  |  |  |  |  |  |  |  |  |  |  |
